pEC50: −log10 of the molar value.
Tested on: W2 P. falciparum
Experiment: not given
Design: method as in PMID 21741131
Details: W2 strain; cited from earlier work

Compound	activity against W2 P. falciparum (in words)
Oc1nc(C(Cl)(Cl)Cl)nc2ccccc12 [2-(trichloromethyl)quinazolin-4-ol]	not active

Tested on: HepG2 cell line
Experiment: not given
Design: method as in earlier work
Details: previously described compounds; ref 9 (A), 10 (B), 11 (C), 12 (series D); read-out: Cytotoxicity CC50 HepG2; cited from earlier work

Compound	CC50
Fc1ccc(-c2nc(C(Cl)(Cl)Cl)nc3ccccc23)cc1 [A, 4-(4′-fluorophenyl)-2-trichloromethylquinazoline]	> 125 µM
O=[N+]([O-])c1ccc(COc2nc(C(Cl)(Cl)Cl)nc3ccccc23)cc1 [C]	19.4 µM

Tested on: K1 P. falciparum strain
Experiment: In vitro antiplasmodial evaluation (SYBR Green I fluorescence-based method)
Assay type: cell-based
Details: CC50 HepG2 / EC50 PfK1
Method: It was maintained in continuous culture as described previously by Trager and Jensen. […] Parasitemia was maintained daily at between 1 and 3%. The P. falciparum drug susceptibility test was carried out by comparing quantities of DNA in treated and control cultures of parasite in human erythrocytes according to an SYBR Green I fluorescence-based method using a 96-well fluorescence plate reader. […] Duplicate assays were performed for each sample. After incubation, plates were frozen at -20 °C for 24 h. […] Fifteen μL of each sample were transferred to 96-well flat bottom non-sterile black plates (Greiner Bio-one) already containing 15 μL of the SYBR Green I lysis buffer (2X SYBR Green I, 20 mM Tris base pH 7.5, 20 mM EDTA, 0.008% w/v saponin, 0.08% w/v Triton X-100).

Compound	SI (selectivity index = CC50/EC50)
O=C(Nc1nc(C(Cl)(Cl)Cl)nc2ccccc12)c1ccccc1[N+](=O)[O-] [Molecule 8, 2-Nitro-N-(2-Trichloromethylquinazolin-4-yl)benzamide]	>5.2
O=C(Nc1nc(C(Cl)(Cl)Cl)nc2ccccc12)c1ccccn1 [Molecule 17, N-(2-Trichloromethylquinazolin-4-yl)picolinamide]	>0.5
CCC(=O)Nc1nc(C(Cl)(Cl)Cl)nc2ccccc12 [Molecule 21, N-(2-Trichloromethylquinazolin-4-yl)propionamide]	>12.8
C#CC(C)Oc1nc(C(Cl)(Cl)Cl)nc2ccccc12 (centres unmarked) [Molecule 32, 4-(But-3-yn-2-yloxy)-2-Trichloromethylquinazoline]	<4.5
C#CC(Oc1nc(C(Cl)(Cl)Cl)nc2ccccc12)C(C)C (centres unmarked) [Molecule 33, 4-(4-Methylpent-1-yn-3-yloxy)-2-Trichloromethylquinazoline]	<3
OCCOc1nc(C(Cl)(Cl)Cl)nc2ccccc12 [Molecule 34, 2-(2-Trichloromethylquinazolin-4-yloxy)ethanol]	0.8

Same assay, conditions: Plasmodium falciparum, K1, 72 h, multi-resistant K1 P. falciparum strain, 72 h incubation; read-out: PfK1 EC50

Compound	pEC50
O=C(Nc1nc(C(Cl)(Cl)Cl)nc2ccccc12)c1ccccc1[N+](=O)[O-] [Molecule 8, 2-Nitro-N-(2-Trichloromethylquinazolin-4-yl)benzamide]	5.52
O=C(Nc1nc(C(Cl)(Cl)Cl)nc2ccccc12)c1ccccn1 [Molecule 17, N-(2-Trichloromethylquinazolin-4-yl)picolinamide]	4.84
CCC(=O)Nc1nc(C(Cl)(Cl)Cl)nc2ccccc12 [Molecule 21, N-(2-Trichloromethylquinazolin-4-yl)propionamide]	5.31
C#CC(C)Oc1nc(C(Cl)(Cl)Cl)nc2ccccc12 (centres unmarked) [Molecule 32, 4-(But-3-yn-2-yloxy)-2-Trichloromethylquinazoline]	< 5.00
C#CC(Oc1nc(C(Cl)(Cl)Cl)nc2ccccc12)C(C)C (centres unmarked) [Molecule 33, 4-(4-Methylpent-1-yn-3-yloxy)-2-Trichloromethylquinazoline]	< 5.00
OCCOc1nc(C(Cl)(Cl)Cl)nc2ccccc12 [Molecule 34, 2-(2-Trichloromethylquinazolin-4-yloxy)ethanol]	5.00

Tested on: not listed separately
Experiment: Solubility of the tested molecule in the culture medium
Assay type: physicochemical
Details: culture medium of the cytotoxicity test
Method: HepG2 cell line was maintained at 37 °C, 5% CO2, at 90% humidity in […] supplemented with 10% fetal bovine serum, 1% L-glutamine (200 mM) and penicillin (100 U/mL)/streptomycin (100 µg/mL) (complete RPMI medium). The cytotoxicity of the tested molecules on the HepG2 (hepatocarcinoma cell line purchased from ATCC, ref HB-8065) cell line was assessed according to the method of Mosmann with slight modifications. Briefly, 5.10^3 cells in 100 µL of complete medium were inoculated into each well of 96-well plates and incubated at 37 °C in humidified 5% CO2. After 24 h incubation, 100 μL of medium with various product concentrations dissolved in DMSO (final concentration less than 0.5% v/v) were added and the plates were incubated for 72 h at 37 °C. Triplicate assays were performed for each sample. Each plate-well was then microscope-examined for possible precipitate formation before the medium was aspirated from the wells. 100 μL of MTT (3-(4,5-dimethyl-2-thiazolyl)-2,5-diphenyl-2H-tetrazolium bromide) solution (0.5 mg/mL in medium without FBS) were then added to each well. Cells were incubated for 2 h at 37 °C. After this time, the MTT solution was removed and DMSO (100 μL) was added to dissolve the resulting blue formazan crystals. Plates were shaken vigorously (700 rpm) for 10 min. The absorbance was measured at 570 nm with 630 nm as reference wavelength using a BIO-TEK ELx808 Absorbance Microplate Reader (LabX, Midland, ON, Canada). DMSO was used as blank and doxorubicin (purchased from Sigma Aldrich) as positive control. Cell viability was calculated as percentage of control (cells incubated without compound). […] CC50 values represent the mean value calculated from three independent experiments.

Compound	solubility (in words)
O=C(Nc1nc(C(Cl)(Cl)Cl)nc2ccccc12)c1ccccc1[N+](=O)[O-] [Molecule 8, 2-Nitro-N-(2-Trichloromethylquinazolin-4-yl)benzamide]	lack of solubility
O=C(Nc1nc(C(Cl)(Cl)Cl)nc2ccccc12)c1ccccn1 [Molecule 17, N-(2-Trichloromethylquinazolin-4-yl)picolinamide]	lack of solubility
CCC(=O)Nc1nc(C(Cl)(Cl)Cl)nc2ccccc12 [Molecule 21, N-(2-Trichloromethylquinazolin-4-yl)propionamide]	lack of solubility

Tested on: not listed separately
Experiment: In vitro cytotoxicity evaluation (MTT)
Assay type: cell-based
Details: human
Method: Triplicate assays were performed for each sample. Each plate-well was then microscope-examined for possible precipitate formation before the medium was aspirated from the wells. 100 μL of MTT (3-(4,5-dimethyl-2-thiazolyl)-2,5-diphenyl-2H-tetrazolium bromide) solution (0.5 mg/mL in medium without FBS) were then added to each well. […] After this time, the MTT solution was removed and DMSO (100 μL) was added to dissolve the resulting blue formazan crystals. Plates were shaken vigorously (700 rpm) for 10 min. The absorbance was measured at 570 nm with 630 nm as reference wavelength using a BIO-TEK ELx808 Absorbance Microplate Reader (LabX, Midland, ON, Canada). DMSO was used as blank and doxorubicin (purchased from Sigma Aldrich) as positive control. Cell viability was calculated as percentage of control (cells incubated without compound). […] CC50 values represent the mean value calculated from three independent experiments.

Compound	CC50 at 72 h
O=C(Nc1nc(C(Cl)(Cl)Cl)nc2ccccc12)c1ccccc1[N+](=O)[O-] [Molecule 8, 2-Nitro-N-(2-Trichloromethylquinazolin-4-yl)benzamide]	> 15.6 µM
O=C(Nc1nc(C(Cl)(Cl)Cl)nc2ccccc12)c1ccccn1 [Molecule 17, N-(2-Trichloromethylquinazolin-4-yl)picolinamide]	> 7.8 µM
CCC(=O)Nc1nc(C(Cl)(Cl)Cl)nc2ccccc12 [Molecule 21, N-(2-Trichloromethylquinazolin-4-yl)propionamide]	> 62.5 µM
C#CC(C)Oc1nc(C(Cl)(Cl)Cl)nc2ccccc12 (centres unmarked) [Molecule 32, 4-(But-3-yn-2-yloxy)-2-Trichloromethylquinazoline]	45 µM
C#CC(Oc1nc(C(Cl)(Cl)Cl)nc2ccccc12)C(C)C (centres unmarked) [Molecule 33, 4-(4-Methylpent-1-yn-3-yloxy)-2-Trichloromethylquinazoline]	30.6 µM
OCCOc1nc(C(Cl)(Cl)Cl)nc2ccccc12 [Molecule 34, 2-(2-Trichloromethylquinazolin-4-yloxy)ethanol]	7.9 µM

Tested on: not given
Experiment: not given
Details: not given

Compound	melting point
O=C(Nc1nc(C(Cl)(Cl)Cl)nc2ccccc12)c1ccccc1[N+](=O)[O-] [Molecule 8, 2-Nitro-N-(2-Trichloromethylquinazolin-4-yl)benzamide]	257 °C
O=C(Nc1nc(C(Cl)(Cl)Cl)nc2ccccc12)c1ccccn1 [Molecule 17, N-(2-Trichloromethylquinazolin-4-yl)picolinamide]	214 °C
CCC(=O)Nc1nc(C(Cl)(Cl)Cl)nc2ccccc12 [Molecule 21, N-(2-Trichloromethylquinazolin-4-yl)propionamide]	171 °C
C#CC(C)Oc1nc(C(Cl)(Cl)Cl)nc2ccccc12 (centres unmarked) [Molecule 32, 4-(But-3-yn-2-yloxy)-2-Trichloromethylquinazoline]	92 °C
C#CC(Oc1nc(C(Cl)(Cl)Cl)nc2ccccc12)C(C)C (centres unmarked) [Molecule 33, 4-(4-Methylpent-1-yn-3-yloxy)-2-Trichloromethylquinazoline]	96 °C
OCCOc1nc(C(Cl)(Cl)Cl)nc2ccccc12 [Molecule 34, 2-(2-Trichloromethylquinazolin-4-yloxy)ethanol]	93 °C

Tested on: K1 P. falciparum strain
Experiment: not given
Details: previously described compounds; ref 9 (A), 10 (B), 11 (C), 12 (series D); read-out: Antiplasmodial activity EC50 P. falciparum K1; cited from earlier work

Compound	pEC50
Fc1ccc(-c2nc(C(Cl)(Cl)Cl)nc3ccccc23)cc1 [A, 4-(4′-fluorophenyl)-2-trichloromethylquinazoline]	5.60
O=[N+]([O-])c1ccc(COc2nc(C(Cl)(Cl)Cl)nc3ccccc23)cc1 [C]	5.74

From article PMC7504092, “Synthesis and Antiplasmodial Evaluation of 4-Carboxamido- and 4-Alkoxy-2-Trichloromethyl Quinazolines” (Molecules, 2020)
